One test deals with S. aureus. Nature of the test: Antimicrobial testing, time-kill with plate count. It counts as cell-based, Staphylococcus aureus. The settings on record: antimicrobial if greater than 5 log reduction. On the procedure:
(§1) The preferred embodiment was tested for antimicrobial activity using the following procedure.
(§2) A 1% solution of Compound 3 was prepared in DPBS (Dulbecco's phosphate buffered saline). A 25 ml mixture of the 1% Compound 3 and PBS (phosphate buffered saline, pH 7.2 was prepared by mixing 5 ml of the 1% Compound 3 solution and 20 ml of the PBS.
(§3) A 10 ml aliquot of the above mixture was placed into each of two sterile test tubes. One test tube was inoculated with 0.1 ml of S. aureus and the other with 0.1 ml of P. aeruginosa, such that there was a final concentration of 10^6 colony-forming units (CFU)/0.1 mls.
(§4) A various time points, 1.0 ml of each inoculated test sample were removed, diluted 10× with 0.45% saline and plated on trypticase soy agar (TSA) plates.
(§5) The plates were incubated at 30-35° C. for not less than 24 hours. Concentration of CFU in the samples taken at each time point were enumerated by standard methods. The log reduction was calculated for each time period and organism. The log reduction was calculated using the formula: Log reduction=Log inoculums verification−sample log recovery.

The next test deals with P. aeruginosa. Kind of test: Antimicrobial testing, time-kill with plate count. The conditions noted are these: antimicrobial if greater than 5 log reduction. It counts as cell-based, Pseudomonas aeruginosa. On the procedure: as §1, §2, §3, §4, §5

Consider `CCCCCCCCCCCC(=O)OCC1O[C@H](O[C@@]2(CCl)O[C@H](CCl)C(O)C2O)C(O)C(O)[C@H]1Cl` (stereo in doubt) [Compound 3, 1′,6′-Dichloro-1′,6′-dideoxy-β-D-fructofuranosyl-4-chloro-4-deoxy-6-O-monododecanoate-α-galactopyranoside], for which the antimicrobial effect entry is “has antimicrobial effect against S. aureus” with S. aureus and “not P. aeruginosa” in the test on P. aeruginosa.

Source of the values: US20080171721A1, “Halogenated alkyl di- and trisaccharides, pharmaceutical formulations, diagnostic kits and methods of treatment” (priority 2007, published 2008).
